Measurements as given in patent US20230312550A1, “N-(2-(4-CYANOTHIAZOLIDIN-3-YL)-2-OXOETHYL)-QUINOLINE-4-CARBOXAMIDES” (AstraZeneca AB, priority 2020, published 2023).
Values after ≈ are worked out from the molar mass of the structure shown.

Experiments:
[1] = Caco-2 cell permeability; details: human
Experimental: Caco-2 cell permeability was measured as described in Mol Pharm 2017, 14, 1601.

[2] = target: hFAP (M39-A757) (Homo sapiens (Human), UniProt Q12884); experiment: hFAP binding assay (surface plasmon resonance); details: SPR, 20° C.; for hFAP Binding assay k(off) / hFAP Binding assay k(on): single cycle kinetics; for Kd: n = 1 or geometric mean n = 2-4
Experimental: Compounds were tested in a direct binding assay using 8K surface plasmon resonance biosensor (GE Healthcare) at 20° C. Immobilization of hFAP (M39-A757) on a CMD200M sensor chip (Xantec) was performed using standard amine coupling procedure in immobilization buffer (10 mM HEPES, 150 mM NaCl, 0.05% Tween20, pH 7.4). The surface was washed with 10 mM NaOH, 1M NaCl before being activated with EDC/NHS (GE Healthcare), followed by immobilization of hFAP (in 10 mM Acetate pH 5.0). Finally, the surface was deactivated by ethanolamine. Immobilization levels of hFAP were around 4000-6000 RU. The reference spot was treated as described, omitting the injection of hFAP. Compound concentration series were injected over the immobilized protein in increasing concentrations (2-500 nM) using single cycle kinetics in running buffer (20 mM TRIS, 150 mM NaCl, 0.05% Tween20, 1% DMSO, pH 7.4). Interaction models were fitted globally to the experimental traces, enabling determination of kon, koff and Kd.

[3] = target: Prolyl endopeptidase, Prolyl Oligopeptidase (hPREP) (Homo sapiens (Human), UniProt P48147); experiment: hPrep inhibition assay; format: biochemical; details: hPREP 0.6 nM, Z-Gly-Pro-amino-methylcoumarin 50 μM; read-out: PREP IC50
In short: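 Recombinant human PREP at 0.6 nM final with Z-Gly-Pro-AMC substrate at 50 μM final in Tris-HCl pH 7.5, NaCl, Triton X-100, glutathione; 15 min rt preincubation then 20 min rt reaction in dark. AMC fluorescence (ex 340/em 460 nm); IC50 from one-site dose-response fit of % inhibition.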

[4] = Metabolic stability in rat hepatocytes (rHep); details: n = 1 or geometric mean of n = 2-3
[5] = target: human Fibroblast activation protein alpha (hFAP) (Homo sapiens (Human), UniProt Q12884); experiment: hFAP inhibition assay (tight binders); format: biochemical; details: Ala-Pro-AMC 20 μM, n = 1 or geometric mean n = 2-6; further: hFAP 2.4 pM
Experimental: The plates were read on a PHERAstar® reader with excitation 340 nm and emission 460 nm. Data were analyzed in Genedata Screener®. IC50 values were determined by plotting % inhibition versus log compound concentration and using a one site dose response model.

[6] = Kinetic solubility; details: kinetic from dmso stock
Experimental: Kinetic solubility was measured as described in Comput Aided Mol Des 2015, 29, 795.

[7] = Metabolic stability in human liver microsomes (HLM); details: human
Experimental: Metabolic stability in HLM was measured as described in J Comput Aided Mol Des 2015, 29, 795.

[8] = target: FAP (Homo sapiens (Human), UniProt Q12884); experiment: hFAP inhibition assay; format: biochemical; details: hFAP 0.24 nM, Ala-Pro-AMC 20 μM; n = 1 or geometric mean n = 2-3
Experimental: 384 low volume black plates (Greiner #784076) were used. 4 μL, 0.48 nM enzyme solution (100 mM Tris HCl, 100 mM NaCl, 0.05% Chaps, pH 7.4) was added to 40 nL compounds (in DMSO) at 10 CR, 3 fold dilution series from 50 μM FAC. Plates were incubated for 15 min at rt in dark. 4 μL, 40 μM substrate solution (100 mM Tris HCl, 100 mM NaCl, 0.05% Chaps, pH 7.4) was added to each well. Plates were centrifuged at 1000 rpm and incubated for 30 min at rt in dark. The plates were read on a PHERAstar® reader with excitation 340 nm and emission 460 nm. Data were analyzed in Genedata Screener®. IC50 values were determined by plotting % inhibition versus log compound concentration and using a one site dose response model.

[9] = Solubility, kinetic solubility, n = 1 or average of n = 2-3
[10] = HLM CLint, n = 1 or average of n = 2-3

Sequence of Prolyl endopeptidase, Prolyl Oligopeptidase (hPREP) (P48147 whole entry): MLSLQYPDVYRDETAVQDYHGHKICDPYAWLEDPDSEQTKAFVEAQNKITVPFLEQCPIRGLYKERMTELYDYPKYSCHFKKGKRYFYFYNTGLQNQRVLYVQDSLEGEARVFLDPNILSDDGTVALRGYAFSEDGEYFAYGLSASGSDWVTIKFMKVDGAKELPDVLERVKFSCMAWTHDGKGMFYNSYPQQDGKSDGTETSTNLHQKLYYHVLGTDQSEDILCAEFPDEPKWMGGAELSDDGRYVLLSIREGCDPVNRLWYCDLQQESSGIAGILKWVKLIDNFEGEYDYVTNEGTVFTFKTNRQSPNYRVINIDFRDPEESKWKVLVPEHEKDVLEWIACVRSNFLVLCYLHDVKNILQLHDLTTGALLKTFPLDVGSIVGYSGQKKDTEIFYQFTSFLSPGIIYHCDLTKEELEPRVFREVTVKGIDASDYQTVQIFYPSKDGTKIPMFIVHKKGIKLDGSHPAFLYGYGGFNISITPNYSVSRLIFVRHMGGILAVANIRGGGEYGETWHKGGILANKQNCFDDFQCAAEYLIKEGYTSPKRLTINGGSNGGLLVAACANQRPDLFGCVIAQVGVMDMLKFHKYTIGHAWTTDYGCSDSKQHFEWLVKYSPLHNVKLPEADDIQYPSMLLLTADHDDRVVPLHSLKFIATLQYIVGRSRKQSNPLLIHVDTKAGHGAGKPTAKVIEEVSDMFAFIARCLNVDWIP
Sequence of human Fibroblast activation protein alpha (hFAP) (Q12884 38-760): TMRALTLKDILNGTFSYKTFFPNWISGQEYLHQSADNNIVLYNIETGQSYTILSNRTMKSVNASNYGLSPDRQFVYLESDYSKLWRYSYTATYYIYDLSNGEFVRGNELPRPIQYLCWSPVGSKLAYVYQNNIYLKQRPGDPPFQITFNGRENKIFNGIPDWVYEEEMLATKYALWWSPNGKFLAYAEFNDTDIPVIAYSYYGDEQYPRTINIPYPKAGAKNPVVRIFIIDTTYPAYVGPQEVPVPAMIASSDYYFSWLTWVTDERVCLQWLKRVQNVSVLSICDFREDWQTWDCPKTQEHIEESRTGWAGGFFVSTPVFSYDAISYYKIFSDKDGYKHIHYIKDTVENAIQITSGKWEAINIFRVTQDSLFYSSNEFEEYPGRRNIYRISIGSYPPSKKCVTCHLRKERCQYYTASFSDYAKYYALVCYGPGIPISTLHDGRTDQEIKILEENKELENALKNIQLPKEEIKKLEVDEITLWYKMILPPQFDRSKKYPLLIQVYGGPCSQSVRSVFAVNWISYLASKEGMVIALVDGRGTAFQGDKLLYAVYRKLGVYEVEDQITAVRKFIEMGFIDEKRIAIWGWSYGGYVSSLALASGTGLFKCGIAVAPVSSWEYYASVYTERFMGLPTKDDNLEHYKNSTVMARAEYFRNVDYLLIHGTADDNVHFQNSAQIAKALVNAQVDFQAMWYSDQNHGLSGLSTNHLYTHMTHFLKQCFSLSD
Sequence of hFAP (M39-A757) (Q12884 39-757): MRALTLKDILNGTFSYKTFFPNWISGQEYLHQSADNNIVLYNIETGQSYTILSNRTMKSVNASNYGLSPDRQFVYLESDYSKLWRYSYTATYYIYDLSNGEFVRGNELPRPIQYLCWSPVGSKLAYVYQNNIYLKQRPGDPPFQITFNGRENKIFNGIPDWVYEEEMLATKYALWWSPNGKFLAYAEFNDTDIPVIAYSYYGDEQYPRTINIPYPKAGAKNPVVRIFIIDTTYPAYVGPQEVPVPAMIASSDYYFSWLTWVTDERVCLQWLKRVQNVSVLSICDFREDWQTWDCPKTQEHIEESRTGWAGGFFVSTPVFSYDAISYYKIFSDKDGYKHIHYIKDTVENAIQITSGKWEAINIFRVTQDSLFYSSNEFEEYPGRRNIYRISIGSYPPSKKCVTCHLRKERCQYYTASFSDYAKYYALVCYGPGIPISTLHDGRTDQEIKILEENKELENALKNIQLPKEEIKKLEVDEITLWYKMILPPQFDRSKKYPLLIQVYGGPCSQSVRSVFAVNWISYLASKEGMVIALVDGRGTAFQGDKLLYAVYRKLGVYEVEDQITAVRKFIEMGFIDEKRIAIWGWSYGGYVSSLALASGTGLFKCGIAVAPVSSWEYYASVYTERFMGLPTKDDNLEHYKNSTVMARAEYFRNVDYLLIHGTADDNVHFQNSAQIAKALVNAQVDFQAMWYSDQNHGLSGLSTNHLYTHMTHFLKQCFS
Sequence of FAP (Q12884 38-760): as the sequence (Q12884 38-760) above

| Compound | Papp A→B [1] | Papp B→A [1] | efflux ratio [1] | hFAP Binding assay k(off) [2] | hFAP Binding assay k(on) [2] | Kd [2] | IC50 [3] | rHep CLint [4] | IC50 [5] | solubility [6, 9] | microsomal CLint [7, 10] | IC50 [8] | solubility [6] | microsomal CLint [7] |
| --- | --- | --- | --- | --- | --- | --- | --- | --- | --- | --- | --- | --- | --- | --- |
| N#C[C@@H]1CSCN1C(=O)CNC(=O)c1ccnc2ccc(N3C[C@@H]4C[C@H]3CO4)cc12 [Example 75, 6-((1S,4S)-2-Oxa-5-azabicyclo[2.2.1]heptan-5-yl)-N-(2-((R)-4-cyano-thiazolidin-3-yl)-2-oxoethyl)quinoline-4-carboxamide] | 0.77 ×10⁻⁶ cm/s | 17 ×10⁻⁶ cm/s | 21 | 0.000024 s⁻¹ | 2300000 M⁻¹ s⁻¹ | 0.0063 nM | 490 nM | 6.7 μL/min/1E6 | 0.05 nM | 930 µM (≈ 394 µg/mL) | 9 µL/min/mg | – | – | – |
| CC1(C(F)F)CN(c2ccc3nccc(C(=O)NCC(=O)N4CSC[C@H]4C#N)c3c2)C1 [Example 135, (R)—N-(2-(4-Cyanothiazolidin-3-yl)-2-oxoethyl)-6-(3-(difluoromethyl)-3-methylazetidin-1-yl)quinoline-4-carboxamide] | 4.4 ×10⁻⁶ cm/s | 29 ×10⁻⁶ cm/s | 6.5 | 0.000023 s⁻¹ | 1700000 M⁻¹ s⁻¹ | 0.013 nM | 500 nM | 6.8 μL/min/1E6 | 0.11 nM | 310 µM (≈ 138 µg/mL) | 23 µL/min/mg | – | – | – |
| N#C[C@@H]1CSCN1C(=O)CNC(=O)c1ccnc2ccc(N3C[C@H]4C[C@@H]3CO4)cc12 [Example 76, 6-((1R,4R)-2-Oxa-5-azabicyclo[2.2.1]heptan-5-yl)-N-(2-((R)-4-cyano-thiazolidin-3-yl)-2-oxoethyl)quinoline-4-carboxamide] | 0.64 ×10⁻⁶ cm/s | 20 ×10⁻⁶ cm/s | 31 | 0.000052 s⁻¹ | 1000000 M⁻¹ s⁻¹ | 0.051 nM | 510 nM | 3.5 μL/min/1E6 | 0.08 nM | > 1000 µM | 4.2 µL/min/mg | – | – | – |
| N#C[C@@H]1CSCN1C(=O)CNC(=O)c1ccnc2ccc(N3CCC[C@H](F)C3)cc12 (mixture of isomers) [Example 40, N-(2-((R)-4-Cyanothiazolidin-3-yl)-2-oxoethyl)-6-((RS)-3-fluoropiperidin-1-yl)quinoline-4-carboxamide] | – | – | – | 0.000046 s⁻¹ | 1300000 M⁻¹ s⁻¹ | 0.043 nM | 280 nM | – | 0.065 nM | – | – | 0.24 nM | – | – |
| COC[C@@H]1CN(c2ccc3nccc(C(=O)NCC(=O)N4CSC[C@H]4C#N)c3c2)CCO1 [Example 93, N-(2-((R)-4-Cyanothiazolidin-3-yl)-2-oxoethyl)-6-((S)-2-(methoxymethyl)-morpholino)quinoline-4-carboxamide] | 0.33 ×10⁻⁶ cm/s | 17 ×10⁻⁶ cm/s | 50 | 0.000080 s⁻¹ | 1800000 M⁻¹ s⁻¹ | 0.047 nM | 1900 nM | 2.6 μL/min/1E6 | 0.091 nM | 300 µM (≈ 137 µg/mL) | < 3 µL/min/mg | – | – | – |
| N#C[C@@H]1CSCN1C(=O)CNC(=O)c1ccnc2ccc(N3CCCCC3=O)cc12 [Example 14, (R)—N-(2-(4-Cyanothiazolidin-3-yl)-2-oxoethyl)-6-(2-oxopiperidin-1-yl)-quinoline-4-carboxamide] | 0.15 ×10⁻⁶ cm/s | 2.4 ×10⁻⁶ cm/s | 16 | 0.000064 s⁻¹ | 1300000 M⁻¹ s⁻¹ | 0.05 nM | 1200 nM | <1 μL/min/1E6 | 0.08 nM | 830 µM (≈ 352 µg/mL) | < 3 µL/min/mg | – | – | – |
| C[C@@H]1CN(c2ccc3nccc(C(=O)NCC(=O)N4CSC[C@H]4C#N)c3c2)C[C@H](C)[C@@H]1O [Example 7, N-(2-((R)-4-Cyanothiazolidin-3-yl)-2-oxoethyl)-6-((3S,4S,5R)-4-hydroxy-3,5-dimethylpiperidin-1-yl)quinoline-4-carboxamide] | 0.34 ×10⁻⁶ cm/s | 20 ×10⁻⁶ cm/s | 59 | 0.000075 s⁻¹ | 740000 M⁻¹ s⁻¹ | 0.1 nM | 510 nM | 2.6 μL/min/1E6 | 0.16 nM | > 1000 µM | 31 µL/min/mg | – | – | – |
| CO[C@H]1CCN(c2ccc3nccc(C(=O)NCC(=O)N4CSC[C@H]4C#N)c3c2)C1 [Example 207, N-(2-((R)-4-Cyanothiazolidin-3-yl)-2-oxoethyl)-6-((S)-3-methoxy-pyrrolidin-1-yl)quinoline-4-carboxamide] | 2.3 ×10⁻⁶ cm/s | 30 ×10⁻⁶ cm/s | 13 | 0.000053 s⁻¹ | 4600000 M⁻¹ s⁻¹ | 0.011 nM | 430 nM | 1.4 μL/min/1E6 | 0.17 nM | 280 µM (≈ 119 µg/mL) | < 3 µL/min/mg | – | – | – |
| CCC1(O)CN(c2ccc3nccc(C(=O)NCC(=O)N4CSC[C@H]4C#N)c3c2)C1 [Example 154, (R)—N-(2-(4-Cyanothiazolidin-3-yl)-2-oxoethyl)-6-(3-ethyl-3-hydroxy-azetidin-1-yl)quinoline-4-carboxamide] | 0.32 ×10⁻⁶ cm/s | 12 ×10⁻⁶ cm/s | 37 | 0.000054 s⁻¹ | 910000 M⁻¹ s⁻¹ | 0.059 nM | 590 nM | 2.7 μL/min/1E6 | 0.092 nM | 850 µM (≈ 362 µg/mL) | < 3 µL/min/mg | – | – | – |
| COC[C@@H]1[C@@H](C)OCCN1c1ccc2nccc(C(=O)NCC(=O)N3CSC[C@H]3C#N)c2c1 [Example 97, N-(2-((R)-4-Cyanothiazolidin-3-yl)-2-oxoethyl)-6-((2R,3R)-3-(methoxymethyl)-2-methylmorpholino)quinoline-4-carboxamide] | 0.52 ×10⁻⁶ cm/s | 23 ×10⁻⁶ cm/s | 45 | 0.000076 s⁻¹ | 690000 M⁻¹ s⁻¹ | 0.11 nM | 890 nM | 19 μL/min/1E6 | 0.23 nM | 950 µM (≈ 446 µg/mL) | 32 µL/min/mg | – | – | – |
| CC1(C)CCCN(c2ccc3nccc(C(=O)NCC(=O)N4CSC[C@H]4C#N)c3c2)C1=O [Example 15, (R)—N-(2-(4-Cyanothiazolidin-3-yl)-2-oxoethyl)-6-(3,3-dimethyl-2-oxopiperidin-1-yl)quinoline-4-carboxamide] | 0.3 ×10⁻⁶ cm/s | 13 ×10⁻⁶ cm/s | 45 | 0.000046 s⁻¹ | 490000 M⁻¹ s⁻¹ | 0.11 nM | 2100 nM | 11 μL/min/1E6 | 0.12 nM | 890 µM (≈ 402 µg/mL) | 43 µL/min/mg | – | – | – |
| N#C[C@@H]1CSCN1C(=O)CNC(=O)c1ccnc2ccc(N3CC4(CC(F)C4)C3)cc12 [Example 155, (R)—N-(2-(4-Cyanothiazolidin-3-yl)-2-oxoethyl)-6-(6-fluoro-2-azaspiro[3.3]heptan-2-yl)quinoline-4-carboxamide] | 4.2 ×10⁻⁶ cm/s | 27 ×10⁻⁶ cm/s | 6.5 | 0.000050 s⁻¹ | 3100000 M⁻¹ s⁻¹ | 0.016 nM | 380 nM | 3.2 μL/min/1E6 | 0.086 nM | – | – | – | 400 µM (≈ 176 µg/mL) | 19 µL/min/mg |
| CC1(C)CCN(c2ccc3nccc(C(=O)NCC(=O)N4CSC[C@H]4C#N)c3c2)C1=O [Example 12, (R)—N-(2-(4-Cyanothiazolidin-3-yl)-2-oxoethyl)-6-(3,3-dimethyl-2-oxopyrrolidin-1-yl)quinoline-4-carboxamide] | 0.29 ×10⁻⁶ cm/s | 19 ×10⁻⁶ cm/s | 65 | 0.000064 s⁻¹ | 1900000 M⁻¹ s⁻¹ | 0.038 nM | 510 nM | <1 μL/min/1E6 | 0.065 nM | 830 µM (≈ 363 µg/mL) | 6.4 µL/min/mg | – | – | – |
